Source: publication PMC10929621, “An Engineered Biarylitide Cross-Linking P450 from RiPP Biosynthesis Generates Alternative Cyclic Peptides” (Organic Letters, 2024)

System: Blt-M1 (P450Blt A231V-H234L)
Test: Deuterium loss on cyclization by Blt-M1
Format: biochemical, Micromonospora sp. MW-13
Conditions: deuterium at C2 of His-3, HRMS
Procedure: Finally, we sought to clarify the nature of the cross-link within 5 formed by Blt-M1 as no equivalent cross-linked tripeptide natural product has been identified. Scaled enzymatic cyclization of Nle-2 (N-terminal Met residue was replaced with norleucine (Nle) to avoid sulfoxidation due to the release of reactive oxygen intermediates during catalysis) and purification of Nle-5 were then performed. […] We turned to the use of peptide deuteration to resolve this cross-link, which based on WT biarylitide reactivity could be either C–C or C–N. This required synthesis and turnover of a deuterated version of Nle-2 with deuterium at C2 of the His-3 residue (Nle-2^3d).[17] […]
The UV-visible spectra of the P450 enzymes were obtained using a Jasco V-750 spectrophotometer as has been previously reported.1 The spectra were measured until it reached a stable peak. CO difference spectra were obtained using a Jasco V-750 spectrophotometer at 30 °C as has been previously described.1 The UV-vis spectra were measured between 390–600 nm every 5 mins until the spectra was stable.1, 4 Substrate interaction with the P450s was measured using UV-visible absorbance spectroscopy carried out on a Jasco V-750 spectrophotometer according to previously reported protocol.1 Amplitudes of the different spectra were extrapolated (ΔA = Amax - Amin) and plotted against the substrate concentration. […]

For “NleRHLY (sidechain bridge or staple) [Nle-5, cross-linked peptide from enzymatic cyclization of Nle-2 by Blt-M1]”, the “loss of deuterium upon cyclization” value was “loss of deuterium”.
